Test results: US8461184B2, “Sulphur containing pyrazole derivatives as selective cannabinoid CB1 receptor antagonists” (Solvay Pharmaceuticals B.V., priority 2006, dated 2013)
Read-outs that look alike come from different tables or passages of the source.

Experiments:
[1] = biological target: T1, human cannabinoid CB1 receptor (Homo sapiens, UniProt P21554); assay: In vitro affinity for human cannabinoid-CB1 receptors ([3H]CP-55,940 radioligand, CHO cell membranes); assay type: binding; settings: for CB1/CB2 ratio: CB1/CB2 receptor selectivity ratio from hCB1 and hCB2 Ki; for Ki: human CB1 receptor in CHO cell membranes, [3H]CP-55,940, mean of at least three independent experiments, read-out: hCB1 Ki
T1 construct: expressed in transfected cells; host or cells: Chinese hamster ovary (CHO) cells, membrane preparation
T1 sequence (P21554 whole entry): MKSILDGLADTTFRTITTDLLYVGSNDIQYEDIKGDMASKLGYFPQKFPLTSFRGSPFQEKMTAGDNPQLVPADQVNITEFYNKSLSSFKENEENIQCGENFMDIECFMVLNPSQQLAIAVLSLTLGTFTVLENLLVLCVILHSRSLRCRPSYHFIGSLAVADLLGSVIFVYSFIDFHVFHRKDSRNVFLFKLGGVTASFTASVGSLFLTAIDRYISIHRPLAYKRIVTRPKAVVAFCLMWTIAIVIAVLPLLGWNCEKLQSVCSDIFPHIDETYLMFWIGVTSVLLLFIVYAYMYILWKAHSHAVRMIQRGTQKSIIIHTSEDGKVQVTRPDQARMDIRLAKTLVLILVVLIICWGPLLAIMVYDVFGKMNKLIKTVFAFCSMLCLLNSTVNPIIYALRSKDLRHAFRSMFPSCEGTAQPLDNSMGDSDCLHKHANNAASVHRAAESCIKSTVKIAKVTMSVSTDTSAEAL
Procedure: In vitro affinity for human cannabinoid-CB1 receptors.
(§1) The affinity of the compounds of the invention for cannabinoid CB1 receptors can be determined using membrane preparations of Chinese hamster ovary (CHO) cells in which the human cannabinoid CB1 receptor is stably transfected in conjunction with [^3H]CP-55,940 as radioligand. After incubation of a freshly prepared cell membrane preparation with the [^3H]-ligand, with or without addition of compounds of the invention, separation of bound and free ligand is performed by filtration over glassfiber filters. Radioactivity on the filter is measured by liquid scintillation counting.

[2] = biological target: T2, human cannabinoid CB2 receptor (Homo sapiens, UniProt P34972); assay: In vitro affinity for human cannabinoid-CB2 receptors ([3H]CP-55,940 radioligand, CHO cell membranes); assay type: binding; settings: mean of at least three independent experiments, read-out: hCB2 Ki
T2 construct: expressed in transfected cells; host or cells: Chinese hamster ovary (CHO) cells, membrane preparation
T2 sequence (P34972 whole entry): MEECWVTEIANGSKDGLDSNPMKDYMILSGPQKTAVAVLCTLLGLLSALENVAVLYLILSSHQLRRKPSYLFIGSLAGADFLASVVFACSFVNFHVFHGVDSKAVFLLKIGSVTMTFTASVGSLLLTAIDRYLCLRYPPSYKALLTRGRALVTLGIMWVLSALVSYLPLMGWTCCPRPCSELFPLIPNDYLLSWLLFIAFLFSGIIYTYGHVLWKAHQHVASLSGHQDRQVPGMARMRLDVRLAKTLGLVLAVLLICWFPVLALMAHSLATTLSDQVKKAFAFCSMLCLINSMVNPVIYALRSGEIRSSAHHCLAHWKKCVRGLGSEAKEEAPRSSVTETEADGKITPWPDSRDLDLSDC
Procedure: In vitro affinity for human cannabinoid-CB2 receptors.
as §1, with “cannabinoid CB2” for “cannabinoid CB1”, “filter was” for “filter is”

CB1 receptor = biological target: T3, CB1 receptor (Rattus norvegicus, UniProt P20272); assay: CP-55,940 induced hypotension in the rat; assay type: in vivo; settings: read-out: Blood pressure (rat) ED50
T3 construct: from tissue; host or cells: whole animal: male normotensive rats (Harlan)
T3 sequence (P20272 whole entry): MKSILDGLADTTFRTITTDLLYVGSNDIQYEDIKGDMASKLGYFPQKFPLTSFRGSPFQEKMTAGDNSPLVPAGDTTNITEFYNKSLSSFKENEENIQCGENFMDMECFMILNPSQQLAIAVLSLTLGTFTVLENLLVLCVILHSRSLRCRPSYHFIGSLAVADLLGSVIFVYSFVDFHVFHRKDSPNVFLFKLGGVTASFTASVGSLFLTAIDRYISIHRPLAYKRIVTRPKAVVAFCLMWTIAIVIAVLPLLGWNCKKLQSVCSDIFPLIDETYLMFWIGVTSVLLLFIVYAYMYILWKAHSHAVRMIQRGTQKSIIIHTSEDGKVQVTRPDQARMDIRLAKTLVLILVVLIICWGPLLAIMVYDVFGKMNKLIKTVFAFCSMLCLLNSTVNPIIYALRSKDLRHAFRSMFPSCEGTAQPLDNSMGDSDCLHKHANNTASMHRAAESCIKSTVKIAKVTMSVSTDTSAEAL
Procedure: Blood pressure was measured, via a cannula inserted into the left carotid artery, by means of a Spectramed DTX-plus pressure transducer (Spectramed B. V., Bilthoven, The Netherlands). […] Heart rate was derived from the pulsatile pressure signal. […] The injection volume was 10 ml/kg.

[3] = p.o., antagonism of hypotension induced by CP-55,940 (0.1 mg/kg i.v.), anaesthetized male normotensive rats

SMILES | CB1/CB2 ratio [1] | Ki [1] [nM] | Ki [2] [nM] | ED50 (CB1 receptor) [mg/kg] | melting point [°C] | ED50 (CB1 receptor; [3]) [mg/kg]
CSc1c(C(=O)NN2CCCCC2)nn(-c2ccc(Cl)cc2Cl)c1-c1ccc(Cl)cc1 [Comp. 1, 5-(4-Chlorophenyl)-1-(2,4-dichlorophenyl)-4-methylsulfanyl-N-(piperidin-1-yl)-1H-pyrazole-3-carboxamide] | 67 | 10 | 668 | 1.5 | 172.4 to 174.5 | –
CSc1c(C(=O)NN2CCCC2)nn(-c2ccc(Cl)cc2Cl)c1-c1ccc(Cl)cc1 [Comp. 2, 5-(4-Chlorophenyl)-1-(2,4-dichlorophenyl)-4-methylsulfanyl-N-(pyrrolidin-1-yl)-1H-pyrazole-3-carboxamide] | >34 | < 10 | 340 | – | – | 1.9
CSc1c(C(=O)NN2CCCCCC2)nn(-c2ccc(Cl)cc2Cl)c1-c1ccc(Cl)cc1 [Comp. 3, 5-(4-Chlorophenyl)-1-(2,4-dichlorophenyl)-4-methylsulfanyl-N-(azepan-1-yl)-1H-pyrazole-3-carboxamide] | 25 | 20 | 500 | – | – | 3.1
